What was measured:
mTORC1 = biological target: T1, mTORC1 (Homo sapiens, UniProt P42345); test: In vitro mTORC1 kinase assay (GST-S6K Thr389 phosphorylation, immunoblot); assay type: biochemical; conditions: assay validation with dual mTOR inhibitor
T1 construct: mTORC1 was isolated by co-immunoprecipitation using Flag antibody; made in house; host or cells: HEK 293T transfected with Flag-Raptor
Protocol: In order to investigate the effect on mTORC1 activity of norathyriol, in vitro mTORC1 kinase assay was performed. After introducing Flag-Raptor into a human cell line 293T, mTORC1 was isolated by co-immunoprecipitation using Flag antibody. In addition, the activity of the isolated mTORC1 complex was evaluated by measuring phosphorylation of GST-S6K Thr389, which is a selective substrate of mTORC1, by immunoblot analysis. In the control group in which Flag-Raptor was not introduced, GST-S6K Thr389 phosphorylation was almost not measured. […] Therefore, it was judged that GST-S6K Thr389 phosphorylation measured in the in vitro mTORC1 kinase assay was generated by mTORC1. In order to evaluate the inhibitory effect of norathyriol on mTORC1 activity, norathyriol was pretreated for 15 minutes, and then in vitro mTORC1 kinase assay was carried out.
More specifically, the HEK 293T cells were cultured in a DMEM culture medium in which 10% heat inactivated FBS+1× Glutamax was added. 8×10^5 HEK 293T cells were seeded in a 100 mm culture dish, and then they were cultured for 1 day. After mixing 42 μl Lipofectamine, 21 μl plus reagent, and 21 μg Flag-Raptor plasmid DNA to 1 ml OPTI-MEM, it was shaken at a room temperature for 25 minutes to prepare a transfection DNA mixture. The transfection DNA mixture was slowly treated on the cells drop by drop, and after culturing for 5 hours, the culture medium was replaced with a new culture medium. […] The protein concentration of the cell lysate was determined with BCA protein assay kit (Thermo Fisher Scientific). […] Thr389 phosphorylation of GST-S6K1, which is a substrate of mTORC1, was measured by performing immunoblot analysis using phospho Thr389 p70 S6 kinase antibody (#9205S, Cell Signaling) and GST antibody (#A190-122A, Bethyl Laboratories). […]

mTORC2 [1] = biological target: T2, mTORC2 (Homo sapiens, UniProt P42345); test: LocaTOR2 assay in A549 cells (FRB-AKT2 Ser473 phosphorylation); assay type: cell-based; design: endogenous in cells; host or cells: A549 (transfected only with the FKBP-recruiter and the FRB-AKT2 reporter); conditions: A549, KRas4B^C30-FKBP recruiter, AP21967; norathyriol at 30 μM and 60 μM; FIG. 9a
Source text: mTORC2 is located in the cell membrane, endosome, ER and mitochondrial membrane. mTORC2 forms an mTORC2 complex as an activated form of ras (ras-GTP) operates as a scaffold in the cell membrane, whereas it forms an mTORC2 complex as mLST8 operates as a scaffold in the endosome. By this difference, the mTORC2 inhibitory effect of norathyriol may be shown differently depending on the subcellular compartment where mTORC2 is located. In order to investigate the mTORC2 inhibitory effect of norathyriol depending on the subcellular compartment location, in vivo LocaTOR2 assay was performed (Ebner et al. (2017) J. Cell Biol. 216:343-353). After introducing FKBP-recruiter selectively located in the membrane of the subcellular compartment and FRB^T2098L-AKT2 which is an mTORC2 substrate, AP21967 was treated for 40 minutes to induce binding between the FKBP-recruiter and FRB-AKT2, and FRB-AKT2 was moved to a specific subcellular compartment. In addition, the degree of phosphorylation of Ser473 of FRB-Akt by mTORC2 located in the site thereof was investigated by immunoblot analysis.

mTORC2 [2] = biological target: T2, mTORC2; test: In vitro mTORC2 kinase assay (GST-Akt Ser473 phosphorylation, immunoblot); assay type: biochemical; design: mTORC was isolated by co-immunoprecipitation using Flag antibody; made in house; host or cells: HEK 293T transfected with Flag-mLST8; conditions: assay validation with dual mTOR inhibitor
Protocol: After introducing Flag-mLST8 into a human cell line 293T, mTORC was isolated by co-immunoprecipitation using Flag antibody. In the in vitro mTORC2 kinase assay, the activity of the isolated mTORC2 was evaluated by measuring phosphorylation of GST-Akt Ser473, which is a selective substrate of mTORC2 by immunoblot analysis. In the control group in which Flag-mLST8 was not introduced, GST-Akt Ser473 phosphorylation was almost not measured. […] Therefore, it was judged that GST-Akt Ser473 phosphorylation measured in the in vitro mTORC2 kinase assay was generated by mTORC2. In order to evaluate the inhibitory effect of norathyriol and athyriol on mTORC2 activity, norathyriol or athyriol was pretreated for 15 minutes, and then in vitro mTORC2 kinase assay was carried out.
More specifically, the HEK 293T cells were cultured in a DMEM culture medium in which 10% heat inactivated FBS+1× Glutamax was added. 8×10^5 HEK 293T cells were seeded in a 100 mm culture dish, and then they were cultured for 1 day. After mixing 42 μl Lipofectamine, 21 μl plus reagent, and 21 μg Flag-mLST8 plasmid DNA to 1 ml OPTI-MEM, it was shaken at a room temperature for 25 minutes to prepare a transfection DNA mixture. The transfection DNA mixture was slowly treated on the cells drop by drop, and after culturing for 5 hours, the culture medium was replaced with a new culture medium. After additional culturing for 48 hours, the cells were […] with CHAPS buffer (50 mM HEPES (pH7.4), 100 mM NaCl, 2 mM EDTA, 0.3% CHAPS, 10 mM sodium pyrophosphate, 10 mM sodium β-glycerophosphate, 1 mM PMSF, 1 μg/ml leupeptin, 1 μg/ml pepstatin A, 10 nM aprotinin, 1 mM Na3VO4, 10 nM calyculin A), and centrifuged at 4° C. at 13,000 rpm for 10 minutes to obtain the supernatant and acquire cell lysate. The protein concentration of the cell lysate was determined with BCA protein assay kit (Thermo Fisher Scientific). After adding anti-Flag M2 affinity gel (50% slurry, Sigma) of 30 μl to the cell lysate of 1 mg, it was shaken at 4° C. for 3 hours. After that, affinity gel was washed with CHAPS buffer 3 times and kinase buffer (50 mM HEPES (pH7.5), 2 mM DTT, 10 mM MnCl2, 10 mM MgCl2) for washing once. After adding kinase buffer [-substrate-ATP] […] After that, kinase buffer (50 mM HEPES (pH7.5), 2 mM DTT, 10 mM MgCl2, 10 mM MnCl2, 1 mM ATP, 500 ng GST-AKT, 10 nM calyculin A) of 10 μl was added and shaken at 30° C. for 45 minutes to progress a kinase reaction. […] Ser473 phosphorylation of GST-AKT, which is a substrate of mTORC2, was measured by performing immunoblot analysis using AKT antibody (#4691, Cell signaling) and phospho Ser473 AKT antibody (#4060, Cell signalig). In order to measure the mTORC2 activity inhibitory effect by the compound, both the kinase buffer [-substrate-ATP] and the kinase buffer included the compound.

[3] = biological target: T3, mTORC2 located in late endosome of dendritic spines (Rattus norvegicus, UniProt P42346); test: LocaTOR2 assay-immunofluorescent staining in primary cultured cerebral neurons (mGluR-dependent mTORC2 activation); assay type: cell-based; conditions: FIG. 11a
T3 construct: endogenous in cells; host or cells: primary cultured cerebral neurons from SD-rat E16 embryos, transduced by lentivirus only with mCherry-FRB-AKT2 and Rab7-FKBP
Source text: By combining Loca-TOR2 assay and immunofluorescence staining, changes in mTORC2 activity located in the late endosome during the induction process of long term depression (LTD) occurring in dendritic spines of primarily cultured cerebral neurons were investigated, and the inhibitory effect of norathyriol on these changes was investigated.
Specifically, mCherry-FRB-AKT2 and Rab7-FKBP were introduced using a lentiviral vector on the primarily cultured cerebral neuron on the DIV5 day, and AP21967 was treated on the DIV17 day to induce binding of FRB and FKBP, and thereby, mCherry-FRB-AKT2 was located in the late endosome. After that, DHPG, which is an mGluR agonist inducing long-term depression, was treated. […] In addition, by measuring Ser473 phosphorylation staining of mCherry-FRB-AKT2 overlapped with PSD-95 staining, which is a protein located in dendritic spines, by immunofluorescent staining, changes in mTORC2 activity located in the late endosome in the dendritic spines can be investigated. After staining using a phospho-Ser473 AKT antibody by immunofluorescent staining, the degree of AKT Ser473 phosphorylation was quantified by counting the number of each fluorescent puncta larger than 0.4 μm or more in size in the dendrites (green). In addition, the dendritic spines were observed by staining with PSD95 antibody (yellow), and the location of mCherry-FRB-AKT2 was investigated by observing mCherry fluorescence (cherry color).
SD-rat gestational age 16-day mice (Orient Bio) were purchased and the mice were anesthetized with CO2 and then embryos were taken out. Until the forebrain was isolated and the meninges were removed, it was performed by the same method as the hippocampal culture, and when the cerebrum was isolated, the dorsal cortex or ventral cortex was cut with a bended syringe needle, and it was collected in new HBSS. The tissue isolated and collected was transferred to a 15 ml tube with a Pasteur pipette, and then in order to remove the remaining meninges and blood vessels, and the like, 2 ml HBSS and 0.25% trypsin of 2 ml were added, and it was reacted in a 37° C. shaker for 10-15 minutes. The cells were settled and the supernatant was removed leaving 1-2 ml, and then trypsin was inactivated by adding DMEM comprising the equal amount of 20% FBS. After centrifugation at 700 rpm for 15 minutes, the supernatant was discarded all and the collected tissue was released, and then Neurobasal culture medium (+glutamate) of 2 ml was added, and titrated with a pipette, and the cells were isolated by changing to a pipette with a narrow end. […] The number of cells was measured with a hemocytometer, and then the cells were seeded in a coated culture dish. […]

Arc protein expression = test: mGluR-dependent Arc protein expression in cerebral neurons; assay type: cell-based; conditions: DHPG alone; FIG. 12a
Protocol: When mGluR is activated in dendritic spines of cerebral neurons, Arc protein is synthesized, and the Arc protein promotes endocytosis of an AMPA receptor to form LTD.
Specifically, DHPG was treated to cerebral neurons, which were obtained by primary culture of white mouse embryo E16 cerebral regions and differentiated for […] (DIV21), for 5 minutes or 10 minutes to activate mGluR. As an Arc antibody, Arc protein (green) and PSD95 (red), which is a marker antibody of postsynaptic density of a synapse, were under
After double immunofluorescent staining of Arc protein with an Arc antidody (green) and PSD95, a marker of postsynaptic density of synapse, with an PSD95 antibody (red), Arc expression in dendritic spines was quantified as the number of Arc+PSD95 double stained puncta per 20 μm neurite length by confocal scanning microscopic scanning.

For COc1ccc(-c2ccc3c(N4CCOC[C@@H]4C)nc(N4CCOC[C@@H]4C)nc3n2)cc1CO [AZD8055, reference compound], the “GST-S6K Thr389 phosphorylation” value (mTORC1) was “mostly reduced”, the “FRB-AKT2 Ser473 phosphorylation, mTORC2 located in cell membrane” value (mTORC2 [1]) was “reduced the phosphorylation of FRB-AKT2 Ser473 to a level of the control group” and the “GST-Akt Ser473 phosphorylation” value (mTORC2 [2]) was “mostly reduced”.

In the case of NC(C(=O)O)c1cc(O)cc(O)c1 (stereo not shown) [DHPG, 3,5-dihydroxyphenylglycine], the “increase of Ser473 phosphorylation of mCherry-FRB-AKT2 located in late endosome of dendritic spines” value ([3]; after 5 minutes of treating DHPG) is reported as 55%, the “increase of Ser473 phosphorylation of mCherry-FRB-AKT2 located in late endosome of dendritic spines” value ([3]; after 10 minutes of treating DHPG) is reported as 72% and the “Ser473 phosphorylation of mCherry-FRB-AKT2 located in late endosome of dendritic spines” value ([3]; after 20 minutes of treating DHPG) is reported as “reduced to the level of the control group”. For the same compound, the “Arc synthesis in dendritic spines (immunofluorescent staining)” value (Arc protein expression) was “increased up to 10 minutes after treating DHPG”.
